Drawing on BindingDB's records for doi:10.1016/j.bmcl.2009.07.052 (Incyte, 2009), this text covers IC50 for 23 molecules.

Sequence of Receptor tyrosine-protein kinase erbB-2 (P04626 whole entry): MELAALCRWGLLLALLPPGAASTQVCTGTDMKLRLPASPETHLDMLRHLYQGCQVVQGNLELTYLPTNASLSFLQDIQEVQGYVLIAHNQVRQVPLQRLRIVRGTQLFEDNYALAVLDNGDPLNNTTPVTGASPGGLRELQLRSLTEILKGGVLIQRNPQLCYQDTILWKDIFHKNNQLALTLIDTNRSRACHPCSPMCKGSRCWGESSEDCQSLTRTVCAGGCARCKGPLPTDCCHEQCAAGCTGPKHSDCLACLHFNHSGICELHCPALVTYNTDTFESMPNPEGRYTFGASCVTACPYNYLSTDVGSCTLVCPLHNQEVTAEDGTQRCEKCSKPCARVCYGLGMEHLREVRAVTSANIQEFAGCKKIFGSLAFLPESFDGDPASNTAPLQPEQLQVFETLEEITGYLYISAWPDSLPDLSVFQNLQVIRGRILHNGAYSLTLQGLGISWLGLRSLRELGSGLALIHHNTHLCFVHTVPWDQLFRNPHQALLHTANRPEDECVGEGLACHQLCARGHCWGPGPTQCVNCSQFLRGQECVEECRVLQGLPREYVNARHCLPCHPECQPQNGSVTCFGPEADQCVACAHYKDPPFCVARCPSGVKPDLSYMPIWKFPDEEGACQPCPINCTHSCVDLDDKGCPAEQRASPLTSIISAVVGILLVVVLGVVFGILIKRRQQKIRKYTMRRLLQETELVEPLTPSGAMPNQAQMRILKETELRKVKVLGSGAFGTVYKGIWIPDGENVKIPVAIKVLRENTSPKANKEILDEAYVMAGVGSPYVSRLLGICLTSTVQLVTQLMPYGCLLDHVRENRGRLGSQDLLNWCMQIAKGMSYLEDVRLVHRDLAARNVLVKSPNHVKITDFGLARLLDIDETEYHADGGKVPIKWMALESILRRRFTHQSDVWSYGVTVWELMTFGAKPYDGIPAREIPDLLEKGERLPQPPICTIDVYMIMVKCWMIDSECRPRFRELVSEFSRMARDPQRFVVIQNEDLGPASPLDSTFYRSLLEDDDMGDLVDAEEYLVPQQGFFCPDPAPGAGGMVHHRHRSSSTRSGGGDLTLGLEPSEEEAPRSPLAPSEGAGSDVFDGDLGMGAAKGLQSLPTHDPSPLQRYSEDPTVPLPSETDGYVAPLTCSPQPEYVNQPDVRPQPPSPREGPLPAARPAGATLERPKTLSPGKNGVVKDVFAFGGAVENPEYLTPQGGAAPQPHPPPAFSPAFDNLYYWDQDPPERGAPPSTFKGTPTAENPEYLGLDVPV

This assay has as its target Receptor tyrosine-protein kinase erbB-2 (Homo sapiens, UniProt P04626). The assay can be described thus: Inhibition of HER-2.
In turn, `CC(C)C(=O)N(C)C1CN[C@H](C(=O)N2CC=C(c3ccccc3)CC2)[C@@H](C(=O)NO)C1` (stereo partly drawn) [(2S,3S)-N-hydroxy-5-(N-methylisobutyramido)-2-(4-phenyl-1,2,3,6-tetrahydropyridine-1-carbonyl)piperidine-3-carboxamide] had an IC50 of 15.5 nM. This counts as double-digit nanomolar.
With `O=C(NO)[C@H]1C[C@H](OC(=O)N2CCCC2)CN[C@@H]1C(=O)N1CC=C(c2ccccc2)C1` [(5S,6S)-5-(hydroxycarbamoyl)-6-(3-phenyl-2,5-dihydro-1H-pyrrole-1-carbonyl)piperidin-3-yl pyrrolidine-1-carboxylate] the figure was 11 nM; with `CN1C[C@@H](OC(=O)N2CCCC2)C[C@H](C(=O)NO)[C@H]1C(=O)N1CCN(c2ccccc2)CC1` [(3S,5S,6S)-5-(hydroxycarbamoyl)-1-methyl-6-(4-phenylpiperazine-1-carbonyl)piperidin-3-yl pyrrolidine-1-carboxylate], 11.5 nM.
`O=C(NO)[C@H]1CC(CC(=O)N2CCCC2)CN[C@@H]1C(=O)N1CC[C@H](c2ccccc2)C1` (stereo partly drawn) [(2S,3S)-N-hydroxy-5-(2-oxo-2-(pyrrolidin-1-yl)ethyl)-2-((R)-3-phenylpyrrolidine-1-carbonyl)piperidine-3-carboxamide]: the IC50 turned out to be 5.6 nM.
In the case of `O=C(NO)[C@H]1CC(OC(=O)N2CCCC2)CN[C@@H]1C(=O)N1CC=C(c2ccccc2)CC1` (stereo partly drawn) [(5S,6S)-5-(hydroxycarbamoyl)-6-(4-phenyl-1,2,3,6-tetrahydropyridine-1-carbonyl)piperidin-3-yl pyrrolidine-1-carboxylate], 5.6 nM corresponded to half-maximal inhibition (IC50).
The figure for `CN1C[C@@H](OC(=O)N2CCC(F)(F)C2)C[C@H](C(=O)NO)[C@H]1C(=O)N1CCN(c2ccccc2)CC1` [(3S,5S,6S)-5-(hydroxycarbamoyl)-1-methyl-6-(4-phenylpiperazine-1-carbonyl)piperidin-3-yl 3,3-difluoropyrrolidine-1-carboxylate] is 50.5 nM; for `CN(C(=O)c1ccccc1)C1CN[C@H](C(=O)N2CC=C(c3ccccc3)CC2)[C@@H](C(=O)NO)C1` (stereo partly drawn) [(2S,3S)-N-hydroxy-5-(N-methylbenzamido)-2-(4-phenyl-1,2,3,6-tetrahydropyridine-1-carbonyl)piperidine-3-carboxamide] it is 10 nM; for `CN1C[C@@H](OC(=O)N2CCCCCC2)C[C@H](C(=O)NO)[C@H]1C(=O)N1CCN(c2ccccc2)CC1` [(3S,5S,6S)-5-(hydroxycarbamoyl)-1-methyl-6-(4-phenylpiperazine-1-carbonyl)piperidin-3-yl azepane-1-carboxylate] it is 4.4 nM.
The figure for `CN1C[C@@H](OC(=O)N2CC=CC2)C[C@H](C(=O)NO)[C@H]1C(=O)N1CCN(c2ccccc2)CC1` [(3S,5S,6S)-5-(hydroxycarbamoyl)-1-methyl-6-(4-phenylpiperazine-1-carbonyl)piperidin-3-yl 2,5-dihydro-1H-pyrrole-1-carboxylate] is 3.8 nM; for `CN1C[C@@H](OC(=O)N2CCC2)C[C@H](C(=O)NO)[C@H]1C(=O)N1CCN(c2ccccc2)CC1` [(3S,5S,6S)-5-(hydroxycarbamoyl)-1-methyl-6-(4-phenylpiperazine-1-carbonyl)piperidin-3-yl azetidine-1-carboxylate] it is 44.5 nM.
`CN(C)C(=O)O[C@H]1C[C@H](C(=O)NO)[C@@H](C(=O)N2CCN(c3ccccc3)CC2)N(C)C1` [(3S,5S,6S)-5-(hydroxycarbamoyl)-1-methyl-6-(4-phenylpiperazine-1-carbonyl)piperidin-3-yl dimethylcarbamate] yielded an IC50 of 31 nM. This IC50 and that of the molecule before are within 1.5-fold of each other.
The figure for `CN(C(=O)c1ccccc1)C1CN[C@H](C(=O)N2CC[C@H](c3ccccc3)C2)[C@@H](C(=O)NO)C1` (stereo partly drawn) [(2S,3S)-N-hydroxy-5-(N-methylbenzamido)-2-((R)-3-phenylpyrrolidine-1-carbonyl)piperidine-3-carboxamide] is 29 nM; for `CC(C)C(=O)N(C)C1CN[C@H](C(=O)N2CC[C@H](c3ccccc3)C2)[C@@H](C(=O)NO)C1` (stereo partly drawn) [(2S,3S)-N-hydroxy-5-(N-methylisobutyramido)-2-((R)-3-phenylpyrrolidine-1-carbonyl)piperidine-3-carboxamide] it is 52 nM.
`O=C(NO)[C@H]1CC(OC(=O)N2CCCC2)CN[C@@H]1C(=O)N1CC[C@H](c2ccccc2)C1` (stereo partly drawn) had an IC50 of 28 nM.
Regarding `O=C(NO)[C@H]1CC(OC(=O)N2CCCC2)CN[C@@H]1C(=O)N1Cc2ccccc2C1` (stereo partly drawn) [(5S,6S)-5-(hydroxycarbamoyl)-6-(isoindoline-2-carbonyl)piperidin-3-yl pyrrolidine-1-carboxylate], the IC50 came out at 70 nM.
With `COC(=O)N1C[C@@H](OC(=O)N2CCCC2)C[C@H](C(=O)NO)[C@H]1C(=O)N1CCN(c2ccccc2)CC1` [(2S,3S,5S)-methyl 3-(hydroxycarbamoyl)-2-(4-phenylpiperazine-1-carbonyl)-5-(pyrrolidine-1-carbonyloxy)piperidine-1-carboxylate] the figure was 8.1 nM; with `O=C(NO)[C@H]1C[C@@H](OC(=O)N2CCCC2)CN[C@@H]1C(=O)N1CC=C(c2ccccc2)CC1` [(3R,5S,6S)-5-(hydroxycarbamoyl)-6-(4-phenyl-1,2,3,6-tetrahydropyridine-1-carbonyl)piperidin-3-yl pyrrolidine-1-carboxylate], 30 nM.
With `O=C(NO)[C@H]1CC(CC(=O)N2CCCC2)CN[C@@H]1C(=O)N1CC=C(c2ccccc2)CC1` (stereo partly drawn) [(2S,3S)-N-hydroxy-5-(2-oxo-2-(pyrrolidin-1-yl)ethyl)-2-(4-phenyl-1,2,3,6-tetrahydropyridine-1-carbonyl)piperidine-3-carboxamide], the 50% inhibitory concentration (IC50) turned out to be 4.3 nM.
Regarding `CC(C)OC(=O)N(C)C1CN[C@H](C(=O)N2CC=C(c3ccccc3)CC2)[C@@H](C(=O)NO)C1` (stereo partly drawn) [isopropyl-(5S,6S)-5-(hydroxycarbamoyl)-6-(4-phenyl-1,2,3,6-tetrahydropyridine-1-carbonyl)piperidin-3-yl(methyl)carbamate], half-maximal inhibition (IC50) required 8.5 nM. Against the preceding molecule, the IC50 is about 2-fold higher.
As for `CN1C[C@@H](OC(=O)N2CCCCC2)C[C@H](C(=O)NO)[C@H]1C(=O)N1CCN(c2ccccc2)CC1` [(3S,5S,6S)-5-(hydroxycarbamoyl)-1-methyl-6-(4-phenylpiperazine-1-carbonyl)piperidin-3-yl piperidine-1-carboxylate], half-maximal inhibition (IC50) was put at 7.3 nM.
With `O=C(NO)[C@H]1C[C@H](OC(=O)N2CCCC2)CN[C@@H]1C(=O)N1CCN(c2ccccc2)CC1` [(5S,6S)-5-(hydroxycarbamoyl)-6-(4-phenylpiperazine-1-carbonyl)piperidin-3-yl pyrrolidine-1-carboxylate] the figure was 3.8 nM.
The molecule `CN1C[C@@H](OC(=O)N2CCCCCCC2)C[C@H](C(=O)NO)[C@H]1C(=O)N1CCN(c2ccccc2)CC1` [(3S,5S,6S)-5-(hydroxycarbamoyl)-1-methyl-6-(4-phenylpiperazine-1-carbonyl)piperidin-3-yl azocane-1-carboxylate] displayed an IC50 of 27.5 nM.
With `O=C(NO)[C@H]1C[C@H](OC(=O)N2CCCC2)CN[C@@H]1C(=O)N1CCC(c2ccccc2)CC1` [(5S,6S)-5-(hydroxycarbamoyl)-6-(4-phenylpiperidine-1-carbonyl)piperidin-3-yl pyrrolidine-1-carboxylate] the figure was 42 nM.

Broadly, the IC50 is the concentration that inhibits the measured activity by half.
